Laboratory results from PubChem BioAssay (NCI).
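Exposure lasted 48 hours, with cells grown in 96-well plates and compounds tested at five concentrations. GI50: concentration for 50% inhibition of growth. TGI denotes the concentration required for complete inhibition of growth.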

Columns and labels:
Experiment in all cases: NCI tumour cell line growth inhibition, 48 h
M19-MEL melanoma = test system: M19-MEL melanoma
KM20L2 colon = test system: KM20L2 colon
XF 498 CNS = test system: XF 498 CNS
RXF-631 renal = test system: RXF-631 renal
MDA-N = test system: MDA-N
DLD-1 colon = test system: DLD-1 colon
HS 578T breast = test system: HS 578T breast
DMS 114 small cell lung = test system: DMS 114 small cell lung
MCF7 breast = test system: MCF7 breast
SN12K1 renal = test system: SN12K1 renal
P388/ADR leukemia = test system: P388/ADR leukemia

Row | Structure (SMILES) | TGI (M19-MEL melanoma) [µM] | TGI (KM20L2 colon) [µM] | TGI (XF 498 CNS) [µM] | TGI (RXF-631 renal) [µM] | TGI (MDA-N) [µM] | TGI (DLD-1 colon) [µM] | TGI (HS 578T breast) [µM] | TGI (DMS 114 small cell lung) [µM] | TGI (MCF7 breast) [µM] | TGI (SN12K1 renal) [µM] | GI50 (MCF7 breast) [µM] | GI50 (MDA-N) [µM] | GI50 (HS 578T breast) [µM] | TGI (P388/ADR leukemia) [µM]
1 | CC[C@@]1(OC(=O)CCC(=O)O)C(=O)OCc2c1cc1n(c2=O)Cc2cc3ccccc3nc2-1 | 1.69 | 33.8 | 5.38 | 17.6 | 5.51 | > 100 | > 100 | 1.08 | – | – | – | – | – | –
2 | CCCN(CCC)c1c([N+](=O)[O-])cc(S(N)(=O)=O)cc1[N+](=O)[O-] | 40.6 | 37.4 | 30.2 | 35.5 | – | 34.9 | – | 40.3 | – | – | – | – | – | –
3 | CC(O)C(NC(=O)C(CS)NC(=O)C(CO)NC(=O)C(CCCCN)NC(=O)C(Cc1c[nH]c2ccccc12)NC(=O)C(Cc1ccc(O)cc1)NC(=O)C(CS)NC(=O)C(N)Cc1ccccc1)C(N)=O (configuration not stated) | 70.9 | 55.8 | 53.8 | 43.7 | > 25 | 59.7 | > 25 | 87.9 | > 25 | – | – | – | – | –
4 | O=C(O)c1[nH]c(C(=O)O)c(CC(F)(F)C(F)(F)C(F)(F)F)c1CC(F)(F)C(F)(F)C(F)(F)F | > 100 | > 100 | > 100 | > 100 | – | > 100 | – | > 100 | – | – | – | – | – | –
5 | c1ccc2c(NCCCCCCCCNc3c4ccccc4nc4ccccc34)c3ccccc3nc2c1 | 2.27 | 2.55 | 2.25 | 1.93 | – | 2.4 | – | 2.42 | – | – | – | – | – | –
6 | c1cncc(C2c3[nH]c4ccccc4c3CCN2CCN2CCCCC2)c1 (configuration not stated) | > 100 | > 100 | > 100 | > 100 | – | > 100 | – | > 100 | – | – | – | – | – | –
7 | COC(=O)C12C3C4C1C1C2C3C41I (configuration not stated) | > 100 | > 100 | > 100 | > 100 | – | > 100 | – | > 100 | – | – | – | – | – | –
8 | CN(C)CCNC(=O)c1cc([N+](=O)[O-])cc2ccc(-c3ccccc3)nc12 | 20 | 31.2 | 21.7 | – | – | 39.5 | – | 28.6 | > 100 | 15.2 | – | – | – | –
9 | CCCCS(=N)(=O)CC[C@H](N)C(=O)O (some centres not stated) | > 5000 | > 5000 | 604 | – | > 10000 | > 5000 | > 10000 | > 5000 | > 10000 | 3750 | > 10000 | > 5000 | > 8500 | > 5000
